Reference: article PMC10604720, “Unraveling the Mechanism of Epichaperome Modulation by Zelavespib: Biochemical Insights on Target Occupancy and Extended Residence Time at the Site of Action” (Biomedicines, 2023)

Assays:
[1] = design: method as in PMID 31668946; conditions: whole-body PET imaging, mice; cited from earlier work
[2] = Biodistribution / PET pharmacokinetics of [124I]-zelavespib in MDA-MB-468 tumor-bearing mice (data of ref 32, refitted to exponential decay); format: in vivo, mouse
Protocol: Iodine-124 is a ‘non-residualizing’ isotope (i.e., free iodine-124 washes out from cells), and therefore, data derived from positron emission tomography imaging of MDA-MB-468-bearing mice that were administered a tracer amount of [^124I]-PU-AD can be used to determine real-time zelavespib concentrations delivered to tumors. Because positron emission tomography provides information on radioactivity and not molar concentrations, radioactivity data from Pillarsetty et al. were transformed into tumor concentrations to calculate the time-dependent zelavespib concentrations in tumors for an administered dose of 50 mg/kg. The drug concentration (in μM) in the tumor water space, [Drugtumor], at the time t post-administration is therefore: [Drugtumor]t=Drugdose·[Atumor]t/100%·1/W·1×10^6/MW µM where Drugdose is the administered drug dose (in mg), [Atumor]t is the activity concentration (in % injected dose per milliliter, %ID/mL) of the surrogate radiotracer, W is the water space of the tissue (in mL/g), MW is the molecular weight of the drug (i.e., zelavespib), and the factor 1 × 10^6 converts the concentration to μM. For the drug zelavespib and the surrogate radiotracer […] co-injected in a ratio of ~1 to 10,000, the drug itself is essentially the only significant form of the drug–surrogate combination in the tumor. Thus, for a co-administered dose of zelavespib (zelavespibdose in mg) and a tracer amount of [^124I]-PU-AD, the drug concentration in the tumor water space (using an average water space, W = 0.8 mL/g, and the molecular weight MW = 512) is: [Zelavespibtumor]t=Zelavespibdose · [Atumor]t/100%·2.44×10^3 µM
To study the zelavespib–epichaperome interaction in vivo, we selected, for simplicity, an epichaperome-positive tumor model (e.g., subcutaneously xenografted MDA-MB-468 tumors in mice). Using whole-body PET imaging after the injection of ^124I-labeled zelavespib, Pillarsetty et al. reported drug presence in MDA-MB-468 tumors up to 120 h post-single dose administration (~T1/2 = 60 h). Conversely, zelavespib was no longer observed in non-disease, non-metabolizing tissues after ~8 h, clearing rapidly from plasma, paralleled by a similar rapid clearance from normal tissues (i.e., chaperone-positive but epichaperome-negative). In these tumors, a clear relationship between tumor retention, pharmacodynamic effects, and anti-tumor activity was observed, supporting the notion that zelavespib was in residence with its target over the time it resided in these tumors.
These values are very much in agreement with those reported for zelavespib in human patients. […] Contrasting plasma and normal tissues and organs, the distribution of zelavespib in tumors was best fitted using a bi-exponential model. […] The first phase thus reflects the clearance of systemic agent, while the second is attributable to specific tumor retention.
Figure 1 Biodistribution of zelavespib in MDA-MB-468 tumor-bearing mice. (a) Biodistribution of [^124I]-Zelavespib in MDA-MB-468 tumors, organs, tissues, and plasma as per ref. [32]. Data are presented as means ± s.d., five mice per time point. Curves for blood, lung, heart, muscle, bone, and brain were fitted using a one-phase decay equation, and kinetics of zelavespib clearance were determined. Tumor curve was fitted to a two-phase exponential decay. k, kfast, and kslow are the rate constants. Half-life (T1/2) is computed as ln(2)/k. […] (b) Illustrative schematic showing the distinct binding kinetics of zelavespib to epichaperomes (slow off-rate) and to chaperone assemblies (fast off-rate). The tumor pharmacokinetics profile recorded in the Phase 2 interval may represent a direct reflection of the in vivo kinetics of target–drug unbinding. koff, kinetic rate constant for dissociation of an epichaperome-zelavespib assembly. Rt, retention time. […]

[3] = MDA-MB-468 tumor-bearing mice, one-phase exponential decay fit of data of ref 32
[4] = MDA-MB-468 tumor, bi-exponential fit, Phase 1: 0 to 8 h, data of ref 32
[5] = MDA-MB-468 tumor, bi-exponential fit, slow terminal clearance phase, data of ref 32
[6] = one-phase decay fit of data of ref 32

CC(C)NCCCn1c(Sc2cc3c(cc2[124I])OCO3)nc2c(N)ncnc21 [[^124I]-zelavespib]
T1/2 in MDA-MB-468 tumors [1]: ~60 h | drug presence in MDA-MB-468 tumors, time post-single dose administration [1]: up to 120 h | half-life (T1/2), bone [2, 3]: 2.844 h | half-life (T1/2), brain [2, 3]: 2.655 h | half-life (T1/2), heart [2, 3]: 3.102 h | half-life (T1/2), lung [2, 3]: 3.367 h | half-life (T1/2), muscle [2, 3]: 5.034 h | half-life (T1/2), plasma/blood [2, 3]: 4.380 h | tumor Phase 1 T1/2 [2, 4]: 2.876 h | tumor Phase 1 rate constant k (kfast) [2, 4]: 0.2410 h⁻¹ | tumor Phase 2 T1/2 [2, 5]: 46.80 h | tumor Phase 2 rate constant k (kslow) [2, 5]: 0.0148 h⁻¹ | clearance rate constant k, blood [2, 6]: 0.1583 h⁻¹ | clearance rate constant k, bone [2, 6]: 0.2437 h⁻¹ | clearance rate constant k, brain [2, 6]: 0.2611 h⁻¹ | clearance rate constant k, heart [2, 6]: 0.2234 h⁻¹ | clearance rate constant k, lung [2, 6]: 0.2059 h⁻¹ | clearance rate constant k, muscle [2, 6]: 0.1377 h⁻¹
